Laboratory results reported in paper PMC4915154, “Development of background-free tame fluorescent probes for intracellular live cell imaging” (Nature Communications, 2016).

Tested on: U-2 OS and CHO cell lines
Experiment: Cellular retention and efflux characteristics test (before/after washing imaging, retaining ratio RR)
Assay type: cell-based, human (U-2 OS), Chinese hamster (CHO)
Settings: 30 min
Description: To expedite an efficient strategy for ‘tame' probe development, we set up a system to predict cellular properties of fluorescent probes via phenotypic high-throughput screening (HTS), cheminformatics and statistical analysis (Fig. 1a). As the first step, we conducted phenotypic HTS to investigate cell permeability and nonspecific binding properties of the probes in a training set. We tested about 2,085 probes consisted of a wide range photophysical properties from numerous fluorophore cores such as BODIPY[12][13][14][15], xanthone, rosamine, cyanine[19][20] and ACEMAN[21]. Their cellular influx and efflux profiles were examined in two types of mammalian cells, U-2 OS and CHO. These cell lines were chosen due to their flexibility in genetic manipulation, adaptability to various culture conditions and versatility in wide biomedical research such as gene expression, toxicity screening, recombinant protein and live cell imaging. Each of the probes was added into live cells and cell image was taken after 30 min by ImageXpress Micro cellular imaging system (Molecular Device). The cells were then washed with fresh growth media, and after another 10 min, a second image was taken to check the completeness of probe washing out of the cell. The first and second imaging facilitated influx (before washing, BW) and efflux (after washing, AW) measurements, respectively (Supplementary Fig. 1).
To measure the influx and efflux of the probes, an automated quantitative intensity-based image analysis was then performed by Multi-Wavelength Cell Scoring analysis using MetaXpress High Content Image software. Retaining ratio (RR, per cent ratio of the average intensity of AW image over BW image) was computed to classify probes into the three phenotypic groups. For each cell in the image, the nuclei and cell region were segmented to provide approximate cellular boundaries. Fluorescence intensity was then quantified on a cell-by-cell basis by the following steps: (i) selecting the image of interest, (2) specifying the width of the stained cell area, (3) adjusting the intensity above local background for detection specificity, and (4) calculating fluorescence intensity with specified reporting parameters. Average fluorescence intensity for each BW and AW images was calculated for each probes and cell lines, and was then used as input in RR calculation (Supplementary Figs 2 and 3).
U-2 OS, a human osteosarcoma cell line, and CHO, a Chinese hamster ovary cell line, (from ATCC) were cultured in Dulbecco's modified eagle's medium (DMEM) (Invitrogen, CA, USA) supplemented with fetal bovine serum (FBS) (10%) and penicillin–streptomycin (1%). Materials used in the cell culture were purchased from Invitrogen. U-2 OS and CHO cells were seeded onto 96-well plate in growth media at 37 °C in the presence of 5% CO2 and were then allowed to attach and grow to 70–80% confluence. Library probes were dissolved in dimethylsulfoxide (DMSO) to make the 1 mM solution, and stored in −20 °C. Before HTS experiment, the growth media was aspirated and replaced by 200 μl fresh growth media containing probes in final concentration of 1 μM and nuclei dye Hoechst 33342. Plates were incubated for 30 min at 37 °C then were imaged using ImageXpress Micro cellular imaging system (Molecular Device) with × 10 objective lens. Immediately after image acquisition, the cells were washed with fresh growth media, and transferred back to a 37 °C cell incubator for further incubation. After 10 min, cells were again imaged (AW image). The first imaging step allowed influx measurement of BW image , while the second imaging step allowed out-flux measurement of AW image. Images of two regions per well were acquired with DAPI, FITC, TRITC or Texas Red filter sets according to probes' excitation and emission wavelength. Experiment was performed in duplicate. Cellular retention and efflux characteristics test for other synthesized probes were also done by using the same protocol. […]

Q: What does the source list for `Cc1cc(C)n2c1C(CCNC(=O)CCC(=O)OCC1C3CCC#CCCC31)=C1C=CC=[N+]1[B-]2(F)F` (centres unmarked) [CO-1]?
A: Cellular retention after washing (probe signal) (CHO and U-2 OS cells, 1 uM probe): leave the cells after washing; Experimentally observed group (U-2 OS and CHO cell lines, probe 1 μM, imaged before and 10 min after washing): L-group (Probes (FI(BW) >200) with rapid efflux were observed to have a RR of <5%, and thus were classified into L-group)
